Results published in patent US6713486B1, “Antiviral 2,4-pyrimidinedione derivatives and process for the preparation thereof” (Korea Research Institute of Chemical Technology, priority 1999, dated 2004).
Like-named read-outs stand apart in the source and are kept apart here.

Experiments:
MT-4 cells = settings: mock-infected MT-4 cells, MTT
HIV-1 = settings: for ED50: Effective concentration for the inhibition of the proliferation of HIV-1 by 50%: HIV-1 infected MT-4 cells, MTT; for S.I. Selectivity index (CD50/ED50): CD50/ED50, MT-4 cells
Source text: First, MT-4 cells were suspended in a culture medium at a concentration of 1×10^4 cells/ml and infected with 500 TCID50 (50% cell culture infective dose)/well of HIV-1.

Y181C HIV-1 mutant [1] = assay: Antiviral activity against mutant HIV-1 (Y181C) by the MTT method; type: cell-based; settings: read-out: EC50: Effective concentration for the inhibition of the proliferation of mutant HIV-1 by 50%; Y181C mutant HIV-1, MTT
Method: Antiviral activities of the inventive compounds were determined against Y181C which is representative HIV-1 mutant having high resistance against anti-HIV-1 nonnucleosides, e.g., Nevirapine, by the MTT method. MKC-442 was employed as a comparative compound.

Y181C HIV-1 mutant [2] = settings: read-out: EC50: Effective concentration for the inhibition of the proliferation of mutant HIV-1 by 50%; Y181C mutant HIV-1; Reference: J. Med. Chem., 42, 4500 (1999); cited from earlier work

SMILES | CD50: Cytotoxic concentration that causes death of MT-4 cells by 50% (MT-4 cells) [µg/mL] | ED50: Effective concentration for the inhibition of the proliferation of HIV-1 by 50% (HIV-1) [ng/mL] | EC50 (Y181C HIV-1 mutant [1]) [nM] | S.I. Selectivity index (CD50/ED50) (HIV-1) | EC50 (Y181C HIV-1 mutant [2]) [µM]
Cc1cc(C)cc(C(=O)c2c(C(C)C)c(=O)[nH]c(=O)n2Cc2ccncc2)c1 [Compound 1, 1-(4′-Picolyl)-5-isopropyl-6-(3′,5′-dimethylbenzoyl)-2,4-pyrimidinedione] | 22.6 | 2.6 | 5 to 14 | – | –
Cc1cc(C)cc(C(=O)c2c(C(C)C)c(=O)[nH]c(=O)n2Cc2cccnc2)c1 [Compound 2, 1-(3′-Picolyl)-5-isopropyl-6-(3′, 5′-dimethylbenzoyl)-2,4-pyrimidinedione] | 27.2 | 3.6 | – | – | –
Cc1cc(C)cc(C(=O)c2c(C(C)C)c(=O)[nH]c(=O)n2Cc2ccccn2)c1 [Compound 3, 1-(2′-Picolyl)-5-isopropyl-6-(3′, 5′-dimethylbenzoyl)-2,4-pyrimidinedione] | 26.1 | 5.5 | – | – | –
Cc1cc(Cl)cc(Cn2c(C(=O)c3cc(C)cc(C)c3)c(C(C)C)c(=O)[nH]c2=O)c1 [Compound 40] | 7.97 | 34.8 | – | – | –
Cc1cc(C)cc(C(=O)c2c(C(C)C)c(=O)[nH]c(=O)n2Cc2cc(F)cc(F)c2)c1 [Compound 43] | 7.16 | 3.5 | – | – | –
Cc1cc(C)cc(C(=O)c2c(C(C)C)c(=O)[nH]c(=O)n2Cc2cc(C(F)(F)F)cc(C(F)(F)F)c2)c1 [Compound 44] | 8.17 | 1800 | – | – | –
Cc1cc(C)cc(Nc2c(C(C)C)c(=O)[nH]c(=O)n2Cc2ccncc2)c1 [Compound 66, 1-(4′-Picolyl)-5-isopropyl-6-(3′, 5′-dimethylphenylamino)-2,4-pyrimidinedione] | >100 | 80 | – | – | –
CCc1c(Nc2cc(C)cc(C)c2)n(Cc2ccncc2)c(=O)[nH]c1=O [Compound 67, 1-(4′-Picolyl)-5-ethyl-6-(3′, 5′-dimethylphenylamino)-2,4-pyrimidinedione] | 54.5 | 420 | – | – | –
Cc1cc(C)cc(C(=O)c2c(C(C)C)c(=O)[nH]c(=O)n2Cc2cc[n+]([O-])cc2)c1 [Compound 68, 1-(N-oxo-4′-Picolyl)-5-isopropyl-6-(3′,5′-dimethylbenzoyl)-2,4-pyrimidinedione] | 56.9 | 14.5 | – | – | –
Cc1cc(C)cc(C(=O)c2c(C(C)C)c(=O)[nH]c(=O)n2Cc2cc[n+]([O-])cc2C)c1 [Compound 69, 1-(N-oxo-3′-Methyl-4′-picolyl)-5-isopropyl-6-(3′, 5′-dimethylbenzoyl)-2,4-pyrimidinedione] | 48.25 | 12.5 | – | – | –
Cc1cc(C)cc(C(=O)c2c(C(C)C)c(=O)[nH]c(=O)n2Cc2c(C)c[n+]([O-])cc2C)c1 [Compound 70, 1-(N-oxo-3′, 5-Dimethyl-4′-picolyl)-5-Isopropyl-6-(3′, 5′-dimethylbenzoyl)-2,4-Pyrimidinedione] | 25.84 | 5.5 | – | – | –
Cc1cc(Cl)cc(C(=O)c2c(C(C)C)c(=O)[nH]c(=O)n2Cc2c(C)c[n+]([O-])cc2C)c1 [Compound 71, 1-(N-oxo-3′,5′-Dimethyl-4′-picolyl)-5-isopropyl-6-(3′,-chloro-5-methylbenzoyl)-2,4-pyrimidinedione] | 25.44 | 8.2 | – | – | –
CC(=O)OCc1cnccc1Cn1c(C(=O)c2cc(C)cc(C)c2)c(C(C)C)c(=O)[nH]c1=O [Compound 72, 1-(3′-Acetoxymethyl-4′-picolyl)-5-Isopropyl-6-(3′,5′-dimethylbenzoyl)-2,4-pyrimidinedione] | 38.49 | 8.8 | – | – | –
CC(=O)OCc1cncc(C)c1Cn1c(C(=O)c2cc(C)cc(C)c2)c(C(C)C)c(=O)[nH]c1=O [Compound 73, 1-(3′-Acetoxymethyl-5′-methyl-4′-picolyl)-5-isopropyl-6-(3′,5′-dimethylbenzoyl)-2,4-pyrimidinedione] | 39.65 | 6.7 | – | – | –
Cc1cc(C)cc(C(=O)c2c(C(C)C)c(=O)[nH]c(=O)n2Cc2ccncc2CO)c1 [Compound 75, 1-(3′-Hydroxymethyl-4′-picolyl)-5-isopropyl-6-(3′,5′-dimethylbenzoyl)-2,4-pyrimidinedione] | 42.06 | 3.1 | – | – | –
Cc1cc(C)cc(C(=O)c2c(C(C)C)c(=O)[nH]c(=O)n2Cc2c(C)cncc2CO)c1 [Compound 76, 1-(3′-Hydroxymethyl-5′-methyl-4′-picolyl)-5-isopropyl-6-(3′, 5′-dimethylbenzoyl)-2,4-pyrimidinedione] | 38.39 | 8.4 | – | – | –
Cc1cc(Cl)cc(C(=O)c2c(C(C)C)c(=O)[nH]c(=O)n2Cc2c(C)cncc2CO)c1 [Compound 77, 1-(3′-Hydroxymethyl-5′-methyl-4′-picolyl)-5-isopropyl-6-(3′-chloro-5′-methylbenzoyl)-2,4-pyrimidinedione] | 23.51 | 11.5 | – | – | –
COC(=O)c1cnccc1Cn1c(C(=O)c2cc(C)cc(C)c2)c(C(C)C)c(=O)[nH]c1=O [Compound 78, 1-(3′-Methoxycarbonyl-4′-picolyl)-5-isopropyl-6-(31,51-dimethylbenzoyl)-2,4-pyrimidinedione] | 40.79 | 7.5 | – | – | –
Cc1cc(C)cc(C(=O)c2c(C(C)C)c(=O)[nH]c(=O)n2Cc2ccncc2C(N)=O)c1 [Compound 79, 1-(3′-Carbamoyl-4′-picolyl)-5-isopropyl-6-(3′,5′-dimethylbenzoyl)-2,4-pyrimidinedione] | >100 | 9.1 | – | – | –
Cc1cc(Cl)cc(C(=O)c2c(C(C)C)c(=O)[nH]c(=O)n2Cc2ccncc2C(N)=O)c1 [Compound 80, 1-(3′-Carbamoyl-4′-picolyl)-5-isopropyl-6-(3′-chloro-5′-methylbenzoyl)-2,4-pyrimidinedione] | 27.83 | 11.1 | – | – | –
Cc1cc(C)cc(C(=O)c2c(C(C)C)c(=O)[nH]c(=O)n2Cc2ccc(N)cc2)c1 [Compound 81, 1-(4′-Aminobenzyl)-5-isopropyl-6-(3′,5′-dimethylbenzoyl)-2,4-pyrimidinedione] | 9.63 | 15 | – | 648 | –
CCOCn1c(Cc2ccccc2)c(C(C)C)c(=O)[nH]c1=O [MKC-442, 6-benzyl-1-ethoxymethyl-5-isopropyluracil, reference compound] | – | 5 | – | 5,544 | 13.4
